We go through 15 molecules from patent US9637491B2, “Pyrazolo[4,3-D]pyrimidines as kinase inhibitors” (Origenis GmbH, priority 2012, dated 2017).

This experiment deals with T1, SYK kinase (Homo sapiens, UniProt P43405).
T1 construct: purchased Invitrogen, Carlsbad
As to the kind of experiment: SYK assay (OMNIA Kinase Assay, Invitrogen). It is filed as biochemical. The note with it: SYK Activities; 1 mM ATP, 10 μM Omnia Peptide Substrate Tyr 7, 30° C. The protocol: In the assay OMNIA® KINASE ASSAY by Invitrogen Corporation (Carlsbad) the effect of invention of a compound on the phosphorylation is determined by measurement of fluorescence intensity of a chelation-enhanced fluorophore called SOX. Upon phosphorylation of the peptide by the kinase of interest, Mg2+ is chelated to form a bridge between the SOX moiety and the phosphate group that is transferred to the specific tyrosine on the peptide. The fluorescence intensity is directly proportional to the amount of peptide phosphorylation.
To the wells of an 384 well small volume plate (Greiner, Frickenhausen) are added (i) the compound under test in 5% DMSO/distilled water (2 μl), (ii) 16 μl of the master mix containing ATP, DTT, Kinase Reaction Buffer, Omina Peptide Substrate Tyr 7 resulting in a final concentration of 1 mM ATP, 0.2 mM DTT and 10 μM Peptide Substrate. The Master Mix and the assay plate was incubated to reaction temperature before the measurement (30° C.). The reaction was started with addition of (iii) 2 μl 4 μg/ml SYK kinase (Invitrogen, Carlsbad). During measurement fluorescence intensitiy readings were collected using a TECAN M1000 at a wavelength of λex 360/λem 485 nm every 30 s for 30 minutes. The reaction velocity was plotted versus the inhibitor concentration to determine the IC50 using XLFit 5.0 (IDBS, Guildford) to fit to a sigmoidal dose response curve.
Turning to `O=C1CCCc2ccc(Nc3nc(-c4ccoc4)nc4cn[nH]c34)cc2N1` [Example 107, 8-((5-(furan-3-yl)-1H-pyrazolo[4,3-d]pyrimidin-7-yl)amino)-4,5-dihydro-1H-benzo[b]azepin-2(3H)-one], the IC50 is 10 to 100 nM.

Take `CN1CCN(c2ccc(Nc3nc(-c4ccoc4)nc4cn[nH]c34)cn2)CC1` [Example 108, 5-(furan-3-yl)-N-(6-(4-methylpiperazin-1-yl)pyridin-3-yl)-1H-pyrazolo[4,3-d]pyrimidin-7-amine]: the IC50 fell in the range of 100 to 1000 nM.

`c1cc(-c2nc(Nc3cnn(C4CCOCC4)c3)c3[nH]ncc3n2)co1` [Example 110, 5-(furan-3-yl)-N-(1-(tetrahydro-2H-pyran-4-yl)-1H-pyrazol-4-yl)-1H-pyrazolo[4,3-d]pyrimidin-7-amine] came in with an IC50 of 10 to 100 nM.

`CC(=O)N1CCN(c2ccc(Nc3nc(-c4ccco4)nc4cn[nH]c34)cc2)CC1` [Example 111, 1-(4-(4-((5-(furan-2-yl)-1H-pyrazolo[4,3-d]pyrimidin-7-yl)amino)phenyl)piperazin-1-yl)ethan-1-one] had an IC50 of 10 to 100 nM.

`CC(C)(C)N1CCN(c2ccc(Nc3nc(-c4ccco4)nc4cn[nH]c34)cc2)CC1` [Example 112, N-(4-(4-(tert-butyl)piperazin-1-yl)phenyl)-5-(furan-2-yl)-1H-pyrazolo[4,3-d]pyrimidin-7-amine]: the IC50 was less than 10 nM.

Molecule `O=C1CCCc2ccc(Nc3nc(-c4ccco4)nc4cn[nH]c34)cc2N1` [Example 113, 8-((5-(furan-2-yl)-1H-pyrazolo[4,3-d]pyrimidin-7-yl)amino)-4,5-dihydro-1H-benzo[b]azepin-2(3H)-one] registered an IC50 of 10 to 100 nM.

In turn, `CN1CCN(c2ccc(Nc3nc(-c4ccco4)nc4cn[nH]c34)cn2)CC1` [Example 114, 5-(furan-2-yl)-N-(6-(4-methylpiperazin-1-yl)pyridin-3-yl)-1H-pyrazolo[4,3-d]pyrimidin-7-amine] yielded an IC50 of 100 to 1000 nM.

`O=C1OCCN1c1ccc(Nc2nc(-c3ccco3)nc3cn[nH]c23)cc1` [Example 115, 3-(4-((5-(furan-2-yl)-1H-pyrazolo[4,3-d]pyrimidin-7-yl)amino)phenyl)oxazolidin-2-one] displayed a 50% inhibitory concentration (IC50) of 10 to 100 nM.

Molecule `c1coc(-c2nc(Nc3cnn(C4CCOCC4)c3)c3[nH]ncc3n2)c1` [Example 117, 5-(furan-2-yl)-N-(1-(tetrahydro-2H-pyran-4-yl)-1H-pyrazol-4-yl)-1H-pyrazolo[4,3-d]pyrimidin-7-amine] had an IC50 of 10 to 100 nM.

`c1nn(C2CCOCC2)cc1Nc1nc(C2CC2)nc2cn[nH]c12` [Example 118, 5-cyclopropyl-N-(1-(tetrahydro-2H-pyran-4-yl)-1H-pyrazol-4-yl)-1H-pyrazolo[4,3-d]pyrimidin-7-amine] returned an IC50 of 10 to 100 nM.

As for `c1nn(C2CCOCC2)cc1Nc1nc(C2CCC2)nc2cn[nH]c12` [Example 119, 5-cyclobutyl-N-(1-(tetrahydro-2H-pyran-4-yl)-1H-pyrazol-4-yl)-1H-pyrazolo[4,3-d]pyrimidin-7-amine], the concentration for half-maximal inhibition (IC50) was in the range of 10 to 100 nM.

`c1cc(N2CCOCC2)ccc1Nc1nc(C2CCC2)nc2cn[nH]c12` [Example 120, 5-cyclobutyl-N-(4-morpholinophenyl)-1H-pyrazolo[4,3-d]pyrimidin-7-amine] returned an IC50 of less than 10 nM.

`Cn1cc(-c2nc(Nc3ccc(N4CCOCC4)cc3)c3[nH]ncc3n2)cn1` [Example 121, 5-(1-methyl-1H-pyrazol-4-yl)-N-(4-morpholinophenyl)-1H-pyrazolo[4,3-d]pyrimidin-7-amine] registered an IC50 of 10 to 100 nM.

For `Cn1cc(-c2nc(Nc3cnn(C4CCOCC4)c3)c3[nH]ncc3n2)cn1` [Example 122, 5-(1-methyl-1H-pyrazol-4-yl)-N-(1-(tetrahydro-2H-pyran-4-yl)-1H-pyrazol-4-yl)-1H-pyrazolo[4,3-d]pyrimidin-7-amine], the half-inhibitory concentration (IC50) lay in the range of 10 to 100 nM.

As for `c1cncc(-c2nc(Nc3ccc(N4CCOCC4)nc3)c3[nH]ncc3n2)c1` [Example 126, N-(6-morpholinopyridin-3-yl)-5-(pyridin-3-yl)-1H-pyrazolo[4,3-d]pyrimidin-7-amine], the IC50 lay within 100 to 1000 nM.
